Data as given in patent US8999974B2, “Acyl piperazine derivatives as TTX-S blockers” (Raqualia Pharma Inc., priority 2010, dated 2015).

Molecular target: T1, human NaV1.3 (Homo sapiens, UniProt Q9NY46)
T1 construct: expressed in transfected cells; host or cells: HEK293
Experiment: FRET assay (EFS, FDSS) on HEK293 cells expressing human NaV1.3 channels
Assay type: cell-based
Conditions: FRET assay, HEK293 cells expressing human NaV1.3; read-out: IC50 against Nav1.3
Protocol: This screen was used to determine the effects of compounds on human NaV1.3, human Nav1.7, and human Nav1.5 channels, utilising electrical field stimulation (EFS) system in 96-well plate format on FDSS (Hamamatsu Photonics) platform. The change of membrane potential was monitored with FRET dye pair, oxonol (DiSBAC2(3)) and coumarin (CC2-DMPE).
Each HEK293 cells expressing human NaV1.3 channels and HEK293 cells expressing human NaV1.5 channels were grown in T225 flasks, in a 5% CO2 humidified incubator to about 80% confluence. Media composition consisted of Dulbecco's Modified Eagle Medium (high glucose), 10% FCS, 100 units/ml Penicillin, 100 microgram/ml Streptomycin and 500 microgram/ml Geneticine.
Protocol: • Seeded each cell lines (1×10^5 cells/well) into poly-D-lysine coated 96-well plates prior to experimentation. • Incubated at 37° C. in 5% CO2 for 24 hours. • Washed each well with assay buffer (140 mM NaCl, 4.5 mM KCl, 10 mM D-Glucose, 2 mM CaCl2, 1 mM MgCl2, 10 mM HEPES, pH 7.4 adjusted with NaOH) twice. • Added 1st loading solution containing 10 microM CC2-DMPE and 0.06% Pluronic F-127 in assay buffer. • Incubated the plate at room temperature in dark for 1 hour. • Removed 1st loading solution and added 2nd loading solution containing 15 microM DiSBAC2(3), 0.555 mM VABSC-1 and 0.004% Pluronic F-127 in assay buffer. • Placed the plate under the dark at room temperature for 25 minutes. • Added compound solutions into the assay plate. • Set the assay plate in FDSS and placed an EFS device on the plate. • Measured EFS-induced fluorescent response by FDSS.
The data were analyzed and reported as normalized ratios of intensities measured at […]. The process of calculating these ratios was performed as follows:
[formula] This analysis was performed using a computerized specific program designed for FDSS generated data. Fluorescence ratio values were plotted using XLfit to determine an IC50 value for each compound.

T1 sequence (Q9NY46 whole entry): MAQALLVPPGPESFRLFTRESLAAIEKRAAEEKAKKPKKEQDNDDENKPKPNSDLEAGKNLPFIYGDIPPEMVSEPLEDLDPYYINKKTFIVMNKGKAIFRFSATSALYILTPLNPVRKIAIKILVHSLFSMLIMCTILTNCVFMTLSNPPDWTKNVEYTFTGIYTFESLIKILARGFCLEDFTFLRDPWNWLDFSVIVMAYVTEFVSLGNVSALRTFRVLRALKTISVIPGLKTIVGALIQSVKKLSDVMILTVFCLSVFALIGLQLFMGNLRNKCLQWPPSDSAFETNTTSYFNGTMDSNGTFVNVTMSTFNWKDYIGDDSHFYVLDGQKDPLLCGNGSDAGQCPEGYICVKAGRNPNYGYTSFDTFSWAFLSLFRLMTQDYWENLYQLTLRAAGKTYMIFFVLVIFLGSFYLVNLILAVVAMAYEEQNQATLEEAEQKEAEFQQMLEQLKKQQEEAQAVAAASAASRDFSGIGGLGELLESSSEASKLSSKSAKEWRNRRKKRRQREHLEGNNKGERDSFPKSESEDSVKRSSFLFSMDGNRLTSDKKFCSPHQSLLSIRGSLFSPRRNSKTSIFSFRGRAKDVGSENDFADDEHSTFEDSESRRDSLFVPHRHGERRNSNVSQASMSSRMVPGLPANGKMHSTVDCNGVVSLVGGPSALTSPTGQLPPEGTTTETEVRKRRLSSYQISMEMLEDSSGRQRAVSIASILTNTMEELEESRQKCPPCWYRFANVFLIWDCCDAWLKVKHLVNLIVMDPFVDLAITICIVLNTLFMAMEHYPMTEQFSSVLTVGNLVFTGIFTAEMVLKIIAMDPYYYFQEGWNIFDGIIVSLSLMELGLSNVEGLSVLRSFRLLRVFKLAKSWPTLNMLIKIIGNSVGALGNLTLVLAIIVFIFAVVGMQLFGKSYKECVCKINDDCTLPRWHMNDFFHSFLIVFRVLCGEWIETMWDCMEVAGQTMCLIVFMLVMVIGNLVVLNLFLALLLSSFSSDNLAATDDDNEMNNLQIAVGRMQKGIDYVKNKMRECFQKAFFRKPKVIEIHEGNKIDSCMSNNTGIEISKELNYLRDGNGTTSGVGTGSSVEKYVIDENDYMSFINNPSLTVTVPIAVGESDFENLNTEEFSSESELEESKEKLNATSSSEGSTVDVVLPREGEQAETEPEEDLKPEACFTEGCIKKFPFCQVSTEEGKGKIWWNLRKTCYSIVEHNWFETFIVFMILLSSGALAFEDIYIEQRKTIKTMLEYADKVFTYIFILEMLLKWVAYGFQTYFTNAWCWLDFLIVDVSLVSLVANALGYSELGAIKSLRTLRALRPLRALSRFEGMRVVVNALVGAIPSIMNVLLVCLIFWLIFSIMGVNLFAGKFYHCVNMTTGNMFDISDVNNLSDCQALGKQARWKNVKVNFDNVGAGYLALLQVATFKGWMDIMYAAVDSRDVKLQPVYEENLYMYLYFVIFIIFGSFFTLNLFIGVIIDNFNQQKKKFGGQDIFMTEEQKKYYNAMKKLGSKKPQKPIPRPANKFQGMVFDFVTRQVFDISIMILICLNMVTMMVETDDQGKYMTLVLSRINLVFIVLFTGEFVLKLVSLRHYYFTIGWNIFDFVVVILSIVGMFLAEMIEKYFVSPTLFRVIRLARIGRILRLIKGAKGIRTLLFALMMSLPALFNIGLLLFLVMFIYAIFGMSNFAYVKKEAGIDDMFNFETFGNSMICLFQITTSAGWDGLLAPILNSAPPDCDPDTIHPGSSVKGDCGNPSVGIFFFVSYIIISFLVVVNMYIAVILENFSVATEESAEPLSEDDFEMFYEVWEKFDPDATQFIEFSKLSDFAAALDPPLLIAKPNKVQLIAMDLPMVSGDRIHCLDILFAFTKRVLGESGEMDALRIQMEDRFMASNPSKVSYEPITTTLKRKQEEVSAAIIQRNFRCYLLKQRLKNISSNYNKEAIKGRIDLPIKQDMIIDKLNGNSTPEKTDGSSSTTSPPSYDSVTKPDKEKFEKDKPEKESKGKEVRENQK

Row | Compound | IC50
1 | CCOc1cccc(C(=O)N2CCN(c3cc(OCC(C)C)ncn3)CC2)n1 [Example 231, (6-ethoxypyridin-2-yl)(4-(6-isobutoxypyrimidn-4-yl)piperazin-1-yl)methanone] | < 3 µM
2 | CC(C)COc1cc(N2CCN(C(=O)c3csc(C(C)C)n3)CC2)ncn1 [Example 233, (4-(6-isobutoxypyrimidin-4-yl)piperazin-1-yl)(2-isopropylthiazol-4-yl)methanone] | < 3 µM
3 | O=C(Cc1noc2ccccc12)N1CCN(c2cc(OCC(F)(F)F)ncn2)CC1 [Example 107, 2-(benzo[d]isoxazol-3-yl)-1-(4-(6-(2,2,2-trifluoroethoxy)pyrimidin-4-yl)piperazin-1-yl)ethanone] | < 3 µM
4 | CC(C)COc1cc(N2CCN(C(=O)c3cnn(-c4ccccc4)c3N)CC2)ncn1 [Example 184, (5-amino-1-phenyl-1H-pyrazol-4-yl)(4-(6-isobutoxypyrimidin-4-yl)piperazin-1-yl)methanone] | < 3 µM
5 | CC(C)COc1cc(N2CCN(C(=O)c3cc(-c4cccnc4)nn3C)CC2)ncn1 [Example 189, (4-(6-isobutoxypyrimidin-4-yl)piperazin-1-yl)(1-methyl-3-(pyridin-3-yl)-1H-pyrazol-5-yl)methanone] | < 3 µM
6 | CC(C)COc1cc(N2CCN(C(=O)c3ccc(-n4cccn4)nc3)CC2)ncn1 [Example 214, (6-(1H-pyrazol-1-yl)pyridin-3-yl)(4-(6-isobutoxypyrimidin-4-yl)piperazin-1-yl)methanone] | < 3 µM
7 | O=C(c1n[nH]c2ccccc12)N1CCN(c2cc(OCC(F)(F)F)ncn2)CC1 [Example 68, (1H-indazol-3-yl)(4-(6-(2,2,2-trifluoroethoxy)pyrimidin-4-yl)piperazin-1-yl)methanone] | < 3 µM
8 | CC(C)COc1cc(N2CCN(C(=O)COc3ccc4cccnc4c3)CC2)ncn1 [Example 127, 1-(4-(6-isobutoxypyrimidin-4-yl)piperazin-1-yl)-2-(quinolin-7-yloxy)ethanone] | < 3 µM
9 | CC(C)COc1cc(N2CCN(C(=O)c3cccc(N4CCCC4)n3)CC2)ncn1 [Example 52, (4-(6-isobutoxypyrimidin-4-yl)piperazin-1-yl)(6-(pyrrolidin-1-yl)pyridin-2-yl)methanone] | < 3 µM
10 | Cn1nc(C(=O)N2CCN(c3cc(OCC(F)(F)F)ncn3)CC2)cc1C(F)(F)F [Example 29, (1-methyl-5-(trifluoromethyl)-1H-pyrazol-3-yl)(4-(6-(2,2,2-trifluoroethoxy)pyrimidin-4-yl)piperazin-1-yl)methanone] | < 3 µM
11 | CC(C)Oc1cc(N2CCN(C(=O)c3nn(C)c4ccc(F)cc34)CC2)ncn1 [Example 210, (5-fluoro-1-methyl-1H-indazol-3-yl)(4-(6-isopropoxypyrimidin-4-yl)piperazin-1-yl)methanone] | < 3 µM
12 | CCn1nc(C(F)(F)F)cc1C(=O)N1CCN(c2cc(OCC(C)C)ncn2)CC1 [Example 217, (1-ethyl-3-(trifluoromethyl)-1H-pyrazol-5-yl)(4-(6-isobutoxypyrimidin-4-yl)piperazin-1-yl)methanone] | < 3 µM
13 | Cc1c(C(=O)N2CCN(c3cc(OCC(F)(F)F)ncn3)CC2)cnn1-c1ccccc1 [Example 148, (5-methyl-1-phenyl-1H-pyrazol-4-yl)(4-(6-(2,2,2-trifluoroethoxy)pyrimidin-4-yl)piperazin-1-yl)methanone] | < 3 µM
14 | CC(C)COc1cc(N2CCN(C(=O)CN3CCc4ccccc4C3=O)CC2)ncn1 [Example 98, 2-(2-(4-(6-isobutoxypyrimidin-4-yl)piperazin-1-yl)-2-oxoethyl)-3,4-dihydroisoquinolin-1(2H)-one] | < 3 µM
15 | CC(C)COc1cc(N2CCN(C(=O)CCN3Cc4ccccc4C3=O)CC2)ncn1 [Example 61, 2-(3-(4-(6-isobutoxypyrimidin-4-yl)piperazin-1-yl)-3-oxopropyl)isoindolin-1-one] | < 3 µM
16 | CC(C)COc1cc(N2CCN(C(=O)c3ccc4ccccc4n3)CC2)ncn1 [Example 18, (4-(6-isobutoxypyrimidin-4-yl)piperazin-1-yl)(quinolin-2-yl)methanone] | < 3 µM
17 | CC(C)COc1cc(N2CCN(C(=O)[C@@H](C)Oc3ccc(F)cc3)CC2)ncn1 [Example 152, (R)-2-(4-fluorophenoxy)-1-(4-(6-isobutoxypyrimidin-4-yl)piperazin-1-yl)propan-1-one] | < 3 µM
18 | CC(C)COc1cc(N2CCN(C(=O)c3cnn(Cc4ccccc4)c3)CC2)ncn1 [Example 171, (1-benzyl-1H-pyrazol-4-yl)(4-(6-isobutoxypyrimidin-4-yl)piperazin-1-yl)methanone] | < 3 µM

Row | Compound | IC50
19 | O=C(CCOc1ccc(F)cc1)N1CCN(c2cc(OC3CCC3)ncn2)CC1 [Example 140, 1-(4-(6-cylcobutoxypyrimidin-4-yl)piperazin-1-yl)-3-(4-fluorophenoxy)propan-1-one] | < 3 µM
20 | O=C(CN1CCc2ccccc2C1=O)N1CCN(c2cc(OCC(F)(F)F)ncn2)CC1 [Example 157, 2-(2-oxo-2-(4-(6-(2,2,2-trifluoroethoxy)pyrimidin-4-yl)piperazin-1-yl)ethyl)-3,4-dihydroisoquinolin-1(2H)-one] | < 3 µM
21 | CC(C)COc1cc(N2CCN(C(=O)Cc3ccc(F)cc3)CC2)ncn1 [Example 119, 2-(4-fluorophenyl)-1-(4-(6-isobutoxypyrimidin-4-yl)piperazin-1-yl)ethanone] | < 3 µM
22 | Cn1nc(C(=O)N2CCN(c3cc(OC4CCC4)ncn3)CC2)c2ccccc21 [Example 38, (4-(6-cyclobutoxypyrimidin-4-yl)piperazin-1-yl)(1-methyl-1H-indazol-3-yl)methanone] | < 3 µM
23 | Cc1nn(-c2ccccc2)nc1C(=O)N1CCN(c2cc(OCC(C)C)ncn2)CC1 [Example 182, (4-(6-isobutoxypyrimidin-4-yl)piperazin-1-yl)(5-methyl-2-phenyl-2H-1,2,3-triazol-4-yl)methanone] | < 3 µM
24 | O=C(c1ccc2cccc(O)c2n1)N1CCN(c2cc(OC3CCC3)ncn2)CC1 [Example 83, (4-(6-cyclobutoxypyrimidin-4-yl)piperazin-1-yl)(8-hydroxyquinolin-2-yl)methanone] | < 3 µM
25 | COc1ccccc1-n1cc(C(=O)N2CCN(c3cc(OCC(C)C)ncn3)CC2)cn1 [Example 183, (4-(6-isobutoxypyrimidin-4-yl)piperazin-1-yl)(1-(2-methoxyphenyl)-1H-pyrazol-4-yl)methanone] | < 3 µM
26 | CC(C)COc1cc(N2CCN(C(=O)c3cc(-c4ccccc4)ncn3)CC2)ncn1 [Example 185, (4-(6-isobutoxypyrimidin-4-yl)piperazin-1-yl)(6-phenylpyrimidin-4-yl)methanone] | < 3 µM
27 | Cc1ccc(C(=O)N2CCN(c3cc(OC4CCCC4)ncn3)CC2)cc1F [Example 7] | < 3 µM
28 | O=C(COc1cccc(F)c1)N1CCN(c2cc(OCC(F)(F)F)ncn2)CC1 [Example 155, 2-(3-fluorophenoxy)-1-(4-(6-(2,2,2-trifluoroethoxy)pyrimidin-4-yl)piperazin-1-yl)ethanone] | < 3 µM
29 | CC(C)COc1cc(N2CCN(C(=O)CN3C(=O)COc4ccccc43)CC2)ncn1 [Example 57, 4-(2-(4-(6-isobutoxypyrimidin-4-yl)piperazin-1-yl)-2-oxoethyl)-2H-benzo[b][1,4]oxazin-3(4H)-one] | < 3 µM
30 | Cc1ccc(C(=O)N2C[C@@H]3C[C@H]2CN3c2cc(OCC(C)C)ncn2)cc1F [Example 94, (3-fluoro-4-methylphenyl)((1S,4S)-5-(6-isobutoxypyrimidin-4-yl)-2,5-diazabicyclo[2.2.1]heptan-2-yl)methanone] | < 3 µM
31 | Cc1ccc(C(=O)N2CCN(c3cc(OC4CCC4)ncn3)CC2)cc1F [Example 16] | < 3 µM
32 | CC(C)Oc1cc(N2CCN(C(=O)c3csc(-c4ccccn4)n3)CC2)ncn1 [Example 193, (4-(6-isopropoxypyrimidin-4-yl)piperazin-1-yl)(2-(pyridin-2-yl)thiazol-4-yl)methanone] | < 3 µM
33 | CC(C)COc1cc(N2CCN(C(=O)c3cc(-c4ccccc4)nn3C)CC2)ncn1 [Example 134, (4-(6-isobutoxpyrimidin-4-yl)piperazin-1-yl)(1-methyl-3-phenyl-1H-pyrazol-5-yl)methanone] | < 3 µM
34 | CC(C)COc1cc(N2CCN(C(=O)Cc3cn(C)c4ccccc34)CC2)ncn1 [Example 101, 1-(4-(6-isobutoxypyrimidin-4-yl)piperazin-1-yl)-2-(1-methyl-1H-indol-3-yl)ethanone] | < 3 µM
35 | Cn1nc(C(=O)N2CCN(c3cc(OCC(F)(F)F)ncn3)CC2)c2ccccc21 [Example 30, (1-methyl-1H-indazol-3-yl)(4-(6-(2,2,2-trifluoroethoxy)pyrimidin-4-yl)piperazin-1-yl)methanone] | < 3 µM
